Assays:
[1] = test system: odor of guaiacol; assay: Sensory test of cross-adaptation, target odor guaiacol; format: in vivo, human; conditions: panelists, test sample smelled before target sample, FIG. 6B
Procedure: The cross-adaptation effect induced by the odorous substance evaluated in Example 2 was estimated by a sensory test. A glass bottle (No. 11, manufactured by Hakuyo Glass Co., Ltd., capacity: 110 mL) was charged with a target odorous substance to be used as a target sample. As the target odorous substance, muscone, guaiacol or p-cresol was used. As the muscone, a cotton ball soaked with 1 mg of muscone was used. As the guaiacol and p-cresol, 1 mL of a mineral oil (Sigma-Aldrich) solution in a concentration of 10 ppm was used. In a similar manner, a glass bottle was charged with a test substance to be used as a test sample. As the test sample, 5 mg of an ethyl vanillin powder, or 1 mL of a mineral oil (Sigma-Aldrich) solution of p-cresyl acetate, p-cresyl isobutyrate or p-methyl quinoline prepared to a concentration of 1,000 ppm was used.
The sensory test was performed by a single blind method by five to eight panelists. The target sample was first presented to each panelist, who was caused to replay on the odor intensity. Next, the test sample was presented for 2 minutes or until the odor could not be perceived. Thereafter, the target sample was presented again, and the panelist was caused to replay on the odor intensity. This series of operations was defined as one set, and the sensory test was carried out with four sets per day per panelist set as the upper limit. […]

[2] = target: T1, OR1A1 (Homo sapiens, UniProt Q9P1Q5); assay: Luciferase reporter gene assay, OR1A1-expressing HEK293 cells; format: cell-based; conditions: screen, muscone 100 μM, FIG. 1
T1 construct: expressed in transfected cells; host or cells: HEK293
T1 sequence (Q9P1Q5 1-309): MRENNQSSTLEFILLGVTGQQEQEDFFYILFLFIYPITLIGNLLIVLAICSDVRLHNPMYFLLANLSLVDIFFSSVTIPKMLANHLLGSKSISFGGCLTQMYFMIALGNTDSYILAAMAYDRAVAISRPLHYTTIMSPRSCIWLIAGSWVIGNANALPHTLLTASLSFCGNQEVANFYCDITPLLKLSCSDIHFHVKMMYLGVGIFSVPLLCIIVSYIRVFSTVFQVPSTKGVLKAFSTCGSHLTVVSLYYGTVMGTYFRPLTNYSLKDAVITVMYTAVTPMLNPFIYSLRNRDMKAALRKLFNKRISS
Source text: On the basis of sequence information registered in GenBank, genes respectively encoding 370 human olfactory receptors shown in Tables 1-1 and 1-2 and genes respectively encoding the human olfactory receptors OR5AN1, OR10G4 and OR9Q2 (respectively set forth in SEQ ID NOS: 1, 3 and 5) were cloned. Each of the genes was cloned by the PCR using human genomic DNA person (G1521: Promega) as a template. Each gene amplified by the PCR was incorporated into a pENTR vector (Invitrogen) in accordance with the instruction, and was recombined to NotI and AscI sites produced downstream from a Flag-Rho tag sequence on a pME18S vector by using NotI and AscI sites present on the pENTR vector.
In 1) of Example 1, HEK293 cells on which the 370 human olfactory receptors were respectively expressed were produced. A reaction solution having a composition shown in Table 2 was prepared and allowed to stand still in a clean bench for 15 minutes, and the resultant was added by 4.4 μL per well in a 384-well plate (BioCoat). Subsequently, the HEK293 cells (20×10^4 cells/cm^2) were seeded by 40 μL per well, and the resultant was cultured for 24 hours in an incubator kept at 37° C. and 5% CO2.
In 2) of Example 1 and Examples 2 and 3, HEK293 cells in which the human olfactory receptor OR5AN1, OR10G4, OR9Q2 or OR1A1 was expressed were produced. […]
The olfactory receptor expressed on the HEK293 cells increases the intracellular cAMP amount by activating adenylate cyclase in conjugation with intracellular Gαs. In the measurement of odor response in this study, luciferase reporter gene assay for monitoring the increase of the intracellular cAMP amount as a luminescence value derived from a firefly luciferase gene (fluc2P-CRE-hygro) was employed. […] Under each of various stimulation conditions, a value fLuc/hRluc obtained by dividing a firefly luciferase-derived luminescence value by a Renilla luciferase-derived luminescence value was calculated. […] A dose-response curve was analyzed using Graph Pad Prism. […]

C[C@@H]1CCCCCCCCCCCCC(=O)C1 [muscone, (R)-3-methyl-1-cyclopentadecanone]
cross-adaptation of guaiacol odor induced by test substance [1]: not induced | responsiveness of OR1A1 compared with OR5AN1 [2]: weaker responsiveness
